Assay results as given in patent US7815905B2, “Methods of increasing insulin sensitivity or decreasing insulin secretion by administering corticotropin releasing factor receptor-2 inhibitors” (Research Development Foundation, priority 2006, dated 2010).
“Also recorded” adds a separate entry of the source. Ends that are not written are not given here.

Assays:
Ucn 2 null mice [1] = assay: Glucose tolerance test (GTT) in Ucn 2 null mice; type: in vivo, mouse; settings: fasted male Ucn 2 null mice; 0.1 μg/kg IP 20 min prior to glucose 2 g/kg
Procedure: (§1) FIG. 1a-f: Metabolic phenotype of Ucn 2 null mice. […] The ability of the Ucn 2 null mice and wild type littermates to handle a glucose load was assessed using a standard glucose tolerance test (see example 1). Fasted male mice were injected intraperitoneally (IP) with glucose (2 g/kg body weight) and blood glucose levels were measured before and at 15, 30, 60, 90 and 120 min following glucose injection. […] Fasted male Ucn 2 null mice were injected IP with saline or with 0.1 μg/kg body weight Ucn 2, 20 min prior to glucose injection (2 g/kg body weight) and blood glucose levels were measured before and at 15, 30, 60 and 90 min following glucose injection. […] Fasted male wild type mice were injected IP with saline or with astressin2B (30 μg/kg body weight), 20 min prior to glucose injection (2 g/kg body weight), and blood glucose levels were measured before and at 15, 30, 60 and 90 min following glucose injection. (d) The enhanced glucose tolerance in the Ucn 2 null mice is not due to increased insulin secretion. Fasted male mice were injected with glucose (3 g/kg body weight, IP) and blood samples were collected at 2, 5, 15 and 30 min following glucose injection and insulin was measured by radioimmunoassay. […] Fasted male mice were injected with insulin (0.75 U/kg body weight, IP) and blood glucose levels were measured before and at 15, 30, 60 and 90 min following insulin injection. […]

Ucn 2 null mice [2] = assay: Insulin tolerance test (ITT) in Ucn 2 null mice; type: in vivo, mouse; settings: fasted male Ucn 2 null mice; 0.1 μg/kg IP 20 min prior to insulin 0.75 U/kg
Procedure: as §1

[3] = test system: insulin signaling in C2C12 myotubes; assay: Phosphorylation studies of insulin signaling in C2C12 myotubes; type: cell-based
Procedure: FIG. 3a-l: Urocortin 2 effects on muscle glucose uptake are mediated by inhibition of insulin signaling. (a-f). Ucn 2 inhibits the insulin-induced Akt and ERK1/2 phosphorylation but not the insulin receptor phosphorylation. Differentiated C2C12 myotubes were pre-incubated with or without Ucn 2 peptide (0.1, 1 or 10 nM) for 1 hour prior to insulin treatment (10 nM, 5 min). Cell lystates were resolved using 4-12% gradient polyacrylamide gels. Gels were electrophorectically transferred to membranes and probed with antibodies specific for the phospho proteins pAkt (Ser 473), pERK1/2 or pIR (Tyr1146). Stimulation of Akt, ERK or insulin receptor (IR) activation was calculated by fold activation of the phosphorylated form normalized to total and compared with the untreated controls (a, d and f, graphs). […] (g-j) Ucn 2 treatment increases the phosphorylation of serine residue 307 and not the tyrosin phosphorylation of IRS-1. Myotube cells, treated with or without PKA inhibitor (H-89), were incubated with insulin and different concentrations of Ucn 2. IRS-1 immunoprecipitated proteins were electrophoresed as before and the immunoblots were probed for phosphorylated tyrosin (g), phosphorylated serine 307 IRS-1 (i) and total IRS-1 (g, i). […] (k) The effect of Ucn 2 on [^3H]2-deoxy-D-glucose uptake in differentiated C2C12 myotubes. Cells were incubated for 2 hours in low glucose, serum free medium and treated with Ucn 2 (0.1, 1 or 10 nM) or without (control) for 30 min prior to insulin administration (10 nM). Glucose uptake was measured 5 min following exposure to [^3H]2-deoxy-D-glucose. Non-specific uptake was measured by incubating muscle tissue with cytochalasin B, which binds to the glucose uptake transporter (GLUT) and inhibits glucose transport into the cell. Specific uptake was calculated by subtracting non specific from total glucose. (l) Schematic representation of the putative cellular mechanisms mediating the effect of Ucn 2 and CRFR2 on the insulin signaling and glucose uptake in skeletal muscle cells. * indicates p<0.05 vs. no treatment. # indicates p<0.05 vs. insulin treatment (b, d, f) or p<0.05 vs. insulin treatment and Ucn 2 (i).
Differentiated C2C12 myotubes were pre-incubated with or without Ucn 2 peptide (0.1, 1 or 10 nM) for 1 hour prior to insulin treatment (10 nM, 5 min). Cells were harvested immediately in 100 μl of sample treatment buffer [STB, 50 mM Tris (pH 6.8), 100 mM dithiothreitol, 2% (wt/vol) sodium dodecyl sulfate, 0.1% (wt/vol) bromphenol blue, and 10% (wt/vol) glycerol]. The samples were boiled for 5 min, proteins were electrophoresed on 4-12% sodium dodecyl sulfate-polyacrylamide gradient gel (Invitrogen Life Technologies), subsequently transferred onto nitrocellulose membranes, and probed with antibodies specific for phosphorylated Akt (Ser 473, Cell Signaling Technology, Inc., Beverly, Mass.), phosphorylated ERK1/2-p42, 44 (Santa Cruz Biotechnology, Inc., Santa Cruz, Calif.), phosphorylated insulin receptor (Tyr 1146, Cell Signaling Technology, Inc.), or phosphorylated IRS1 (Ser 307, Upstate Cell Signaling Solutions, Lake placid, NY). The membranes were washed with phosphate buffer saline containing 0.05% (vol/vol) Tween 20 and incubated with horseradish peroxidase-conjugated anti mouse or rabbit IgG raised in sheep (Amersham Biotech Pharmacia). Immunoreactive proteins were visualized using Super Signal West Pico Chemiluminescent substrate (Pierce, Rockford, Ill.). The relative protein levels were determined using densitometry (Image quant 1.2) by probing the membranes with antibodies directed against total proteins.

C2C12 myotubes = assay: [3H]2-deoxy-D-glucose uptake in C2C12 myotubes; type: cell-based; settings: 0.1, 1 or 10 nM for 30 min prior to insulin 10 nM
Procedure: FIG. 3a-l: Urocortin 2 effects on muscle glucose uptake are mediated by inhibition of insulin signaling. (a-f). Ucn 2 inhibits the insulin-induced Akt and ERK1/2 phosphorylation but not the insulin receptor phosphorylation. Differentiated C2C12 myotubes were pre-incubated with or without Ucn 2 peptide (0.1, 1 or 10 nM) for 1 hour prior to insulin treatment (10 nM, 5 min). Cell lystates were resolved using 4-12% gradient polyacrylamide gels. Gels were electrophorectically transferred to membranes and probed with antibodies specific for the phospho proteins pAkt (Ser 473), pERK1/2 or pIR (Tyr1146). Stimulation of Akt, ERK or insulin receptor (IR) activation was calculated by fold activation of the phosphorylated form normalized to total and compared with the untreated controls (a, d and f, graphs). […] (g-j) Ucn 2 treatment increases the phosphorylation of serine residue 307 and not the tyrosin phosphorylation of IRS-1. Myotube cells, treated with or without PKA inhibitor (H-89), were incubated with insulin and different concentrations of Ucn 2. […] Glucose uptake was measured 5 min following exposure to [^3H]2-deoxy-D-glucose. Non-specific uptake was measured by incubating muscle tissue with cytochalasin B, which binds to the glucose uptake transporter (GLUT) and inhibits glucose transport into the cell. Specific uptake was calculated by subtracting non specific from total glucose. […]

[4] = 0.1, 1 or 10 nM for 1 hour prior to insulin 10 nM, 5 min
[5] = IRS-1 immunoprecipitates, insulin and Ucn 2

Substance: Ucn 2: Urocortin 2, member of the CRF family, CRFR2 agonist; synthetic peptide (IVLSLDVPIGLLQILLEQARARAAREQATTNARILARVGHC; ends and bridges not checked; UniProt Q96RP3 72-112, looked up)
- blood glucose in glucose tolerance test (Ucn 2 null mice [1]): restores blood glucose to wild type levels
- blood glucose in insulin tolerance test (Ucn 2 null mice [2]): restored blood glucose levels to those of wild type mice; also recorded: restores blood glucose to wild type levels
- insulin-induced ERK1/2 phosphorylation [3, 4]: reduces; also recorded: inhibited; also recorded: dose dependently inhibits
- insulin-induced phosphorylation of Akt (Ser 473) [3, 4]: reduces; also recorded: inhibits the insulin-induced phosphorylation of Akt in a dose dependent fashion; also recorded: dose dependently inhibits
- insulin-induced phosphorylation of the insulin receptor (Tyr1146) [3, 4]: no significant differences
- phosphorylation of IRS-1 on serine residue 307 [3, 5]: greatly increases; also recorded: strongly increases
- tyrosine phosphorylation of IRS-1 in response to insulin [3, 5]: remains unchanged
- insulin induced glucose uptake (C2C12 myotubes): reduces; also recorded: dose dependently inhibited
